According to ChEMBL document CHEMBL5465560, “Selectivity Literature for EUbOPEN Chemogenomic Library” (2024):

Experiments:
[1] = target: Protein kinase C delta type (Homo sapiens) (UniProt Q05655); assay: Selectivity interaction (KinomeScan (DiscoverX)) EUB0000655a PRKCD; conditions: at 10 µM
[2] = target: Protein kinase C theta type (Homo sapiens, UniProt Q04759); assay: Selectivity interaction (ProQinase) EUB0000171b PRKCQ
[3] = target: T1, Gamma-aminobutyric acid receptor subunit alpha-1 (Homo sapiens) (UniProt P14867); assay: Selectivity interaction (GPCR panel (PDSP screen)) EUB0001079a GABRA1; conditions: at 10 µM
T1 sequence (whole entry): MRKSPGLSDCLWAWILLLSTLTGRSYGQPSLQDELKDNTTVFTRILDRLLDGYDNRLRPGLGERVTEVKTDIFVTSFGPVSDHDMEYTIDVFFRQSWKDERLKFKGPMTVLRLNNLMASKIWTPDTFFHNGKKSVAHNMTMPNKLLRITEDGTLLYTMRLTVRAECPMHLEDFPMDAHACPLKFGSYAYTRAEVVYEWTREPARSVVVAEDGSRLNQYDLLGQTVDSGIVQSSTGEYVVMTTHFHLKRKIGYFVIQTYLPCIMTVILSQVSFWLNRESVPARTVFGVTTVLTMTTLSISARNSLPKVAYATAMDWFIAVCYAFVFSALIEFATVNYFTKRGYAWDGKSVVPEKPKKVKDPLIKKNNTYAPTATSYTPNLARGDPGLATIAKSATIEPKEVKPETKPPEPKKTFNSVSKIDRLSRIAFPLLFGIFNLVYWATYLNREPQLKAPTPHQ

[4] = target: T2, Myosin-IIIb (Homo sapiens) (UniProt Q8WXR4); assay: Selectivity interaction (LanthaScreen Eu Kinase Binding Assay) EUB0001632a MYO3B; conditions: at 10 µM
T2 sequence (whole entry): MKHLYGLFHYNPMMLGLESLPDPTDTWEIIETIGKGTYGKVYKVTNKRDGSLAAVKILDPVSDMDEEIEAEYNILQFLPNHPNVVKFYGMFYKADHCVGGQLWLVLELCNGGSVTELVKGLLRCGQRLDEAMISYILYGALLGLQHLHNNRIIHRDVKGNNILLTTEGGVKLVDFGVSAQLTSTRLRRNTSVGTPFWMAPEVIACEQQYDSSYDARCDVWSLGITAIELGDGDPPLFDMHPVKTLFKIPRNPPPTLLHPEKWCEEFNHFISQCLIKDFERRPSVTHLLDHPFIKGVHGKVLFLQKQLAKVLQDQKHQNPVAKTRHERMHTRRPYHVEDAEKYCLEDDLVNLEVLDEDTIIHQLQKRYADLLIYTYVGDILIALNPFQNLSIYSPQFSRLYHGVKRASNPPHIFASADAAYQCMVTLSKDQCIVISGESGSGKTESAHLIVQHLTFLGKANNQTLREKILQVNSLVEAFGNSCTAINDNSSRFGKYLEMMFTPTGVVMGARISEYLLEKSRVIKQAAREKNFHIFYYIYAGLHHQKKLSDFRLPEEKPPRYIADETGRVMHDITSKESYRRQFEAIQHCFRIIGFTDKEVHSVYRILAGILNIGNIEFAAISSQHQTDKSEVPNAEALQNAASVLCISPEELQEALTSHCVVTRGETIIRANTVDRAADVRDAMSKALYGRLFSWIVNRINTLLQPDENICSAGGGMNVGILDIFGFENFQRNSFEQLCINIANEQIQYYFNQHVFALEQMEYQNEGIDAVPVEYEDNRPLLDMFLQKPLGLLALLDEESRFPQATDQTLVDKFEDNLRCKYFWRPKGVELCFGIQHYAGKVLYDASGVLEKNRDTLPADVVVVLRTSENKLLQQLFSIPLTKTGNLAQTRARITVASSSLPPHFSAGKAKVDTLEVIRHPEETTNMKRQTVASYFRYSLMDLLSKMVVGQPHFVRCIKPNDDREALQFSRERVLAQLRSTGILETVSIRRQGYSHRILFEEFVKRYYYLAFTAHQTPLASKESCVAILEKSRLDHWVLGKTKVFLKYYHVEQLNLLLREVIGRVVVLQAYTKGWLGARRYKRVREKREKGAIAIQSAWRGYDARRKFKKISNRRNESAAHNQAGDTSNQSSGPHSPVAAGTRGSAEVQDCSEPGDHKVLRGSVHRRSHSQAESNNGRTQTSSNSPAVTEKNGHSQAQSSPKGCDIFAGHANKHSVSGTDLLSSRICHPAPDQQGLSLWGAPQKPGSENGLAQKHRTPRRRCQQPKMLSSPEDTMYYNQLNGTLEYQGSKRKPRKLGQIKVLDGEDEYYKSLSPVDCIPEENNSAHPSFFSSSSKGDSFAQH

[5] = target: CDK1/Cyclin A (Homo sapiens) (UniProt P06493+P20248); assay: Selectivity interaction (LanthaScreen Eu Kinase Binding Assay) EUB0001632a CDK1; format: protein-complex assay; conditions: at 10 µM
[6] = target: Calcium/calmodulin-dependent protein kinase type II subunit delta (Homo sapiens) (UniProt Q13557); assay: Selectivity interaction (Kinase panel (Invitrogen)) EUB0000639a CAMK2D; conditions: at 200 nM
[7] = target: SRSF protein kinase 3 (Homo sapiens) (UniProt Q9UPE1); assay: Selectivity interaction (KinomeScan (DiscoverX)) EUB0000607a SRPK3; conditions: at 10 µM
[8] = target: Dual specificity protein kinase CLK1 (Homo sapiens, UniProt P49759); assay: Selectivity interaction (KinomeScan (DiscoverX)) EUB0001049a CLK1; conditions: at 1 µM
[9] = target: Tyrosine-protein kinase SYK (Homo sapiens, UniProt P43405); assay: Selectivity interaction (Ambit KINOMEscan and KiNATiv profiling in Jurkat cells) EUB0000090b SYK; format: cell-based; conditions: at 1 µM
[10] = target: Ribosomal protein S6 kinase alpha-3 (Homo sapiens, UniProt P51812); assay: Selectivity interaction (ActivX KiNativ screen (ex vivo kinase selectivity in human PBMCs)) EUB0001619a RPS6KA3; format: cell-based; conditions: PBMC, at 1 µM
Sequence of Ribosomal protein S6 kinase alpha-3 (P51812 whole entry): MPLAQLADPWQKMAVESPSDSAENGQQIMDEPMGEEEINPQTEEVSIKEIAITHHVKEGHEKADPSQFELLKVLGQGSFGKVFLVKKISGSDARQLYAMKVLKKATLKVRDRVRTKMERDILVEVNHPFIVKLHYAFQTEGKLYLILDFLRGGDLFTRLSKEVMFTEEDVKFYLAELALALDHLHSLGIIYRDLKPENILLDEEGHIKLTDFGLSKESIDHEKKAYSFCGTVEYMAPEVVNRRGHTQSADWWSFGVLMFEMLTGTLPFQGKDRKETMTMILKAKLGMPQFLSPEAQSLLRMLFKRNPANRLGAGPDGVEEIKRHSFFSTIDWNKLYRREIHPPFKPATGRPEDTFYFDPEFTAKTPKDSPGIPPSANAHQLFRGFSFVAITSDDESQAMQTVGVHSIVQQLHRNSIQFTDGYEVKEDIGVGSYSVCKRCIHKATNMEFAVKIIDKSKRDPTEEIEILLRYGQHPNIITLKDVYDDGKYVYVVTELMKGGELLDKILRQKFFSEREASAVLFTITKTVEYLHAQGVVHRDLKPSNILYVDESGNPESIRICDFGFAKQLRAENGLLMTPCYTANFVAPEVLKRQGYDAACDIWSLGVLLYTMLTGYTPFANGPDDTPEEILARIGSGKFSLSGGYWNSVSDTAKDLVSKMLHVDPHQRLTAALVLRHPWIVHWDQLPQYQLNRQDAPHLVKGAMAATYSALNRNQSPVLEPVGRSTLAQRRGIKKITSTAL

Sequence of Protein kinase C theta type (Q04759 whole entry, looked up): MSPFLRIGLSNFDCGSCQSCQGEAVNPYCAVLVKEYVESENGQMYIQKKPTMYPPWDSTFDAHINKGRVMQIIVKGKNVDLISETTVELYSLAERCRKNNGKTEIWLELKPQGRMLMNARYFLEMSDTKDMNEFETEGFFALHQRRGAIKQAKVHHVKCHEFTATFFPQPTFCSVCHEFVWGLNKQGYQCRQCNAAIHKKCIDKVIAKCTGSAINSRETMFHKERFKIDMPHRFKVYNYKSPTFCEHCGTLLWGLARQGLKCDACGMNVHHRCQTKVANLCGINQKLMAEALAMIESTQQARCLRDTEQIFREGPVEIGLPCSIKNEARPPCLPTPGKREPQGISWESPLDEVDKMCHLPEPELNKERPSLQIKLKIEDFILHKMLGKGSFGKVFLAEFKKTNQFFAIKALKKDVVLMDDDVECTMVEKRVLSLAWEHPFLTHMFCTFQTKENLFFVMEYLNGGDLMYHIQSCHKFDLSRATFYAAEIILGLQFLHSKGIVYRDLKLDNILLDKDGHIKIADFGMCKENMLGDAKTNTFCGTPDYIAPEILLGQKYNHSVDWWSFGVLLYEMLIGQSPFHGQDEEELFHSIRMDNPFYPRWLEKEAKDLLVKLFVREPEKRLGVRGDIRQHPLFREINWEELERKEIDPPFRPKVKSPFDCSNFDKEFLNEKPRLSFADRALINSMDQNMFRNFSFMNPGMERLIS
Sequence of Dual specificity protein kinase CLK1 (P49759 whole entry, looked up): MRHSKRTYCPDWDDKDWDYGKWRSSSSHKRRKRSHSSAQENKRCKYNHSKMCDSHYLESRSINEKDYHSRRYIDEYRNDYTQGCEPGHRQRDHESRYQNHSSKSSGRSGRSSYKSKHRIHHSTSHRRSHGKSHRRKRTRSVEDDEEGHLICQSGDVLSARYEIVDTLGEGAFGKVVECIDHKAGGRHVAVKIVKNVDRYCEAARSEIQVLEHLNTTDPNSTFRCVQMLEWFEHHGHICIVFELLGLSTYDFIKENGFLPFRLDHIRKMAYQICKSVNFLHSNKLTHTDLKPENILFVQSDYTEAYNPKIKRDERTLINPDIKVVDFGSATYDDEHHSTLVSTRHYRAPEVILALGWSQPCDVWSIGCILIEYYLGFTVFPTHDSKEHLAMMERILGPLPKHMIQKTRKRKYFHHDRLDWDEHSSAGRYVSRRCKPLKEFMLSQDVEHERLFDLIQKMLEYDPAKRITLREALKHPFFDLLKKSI
Sequence of SRSF protein kinase 3 (Homo sapiens) (Q9UPE1 whole entry): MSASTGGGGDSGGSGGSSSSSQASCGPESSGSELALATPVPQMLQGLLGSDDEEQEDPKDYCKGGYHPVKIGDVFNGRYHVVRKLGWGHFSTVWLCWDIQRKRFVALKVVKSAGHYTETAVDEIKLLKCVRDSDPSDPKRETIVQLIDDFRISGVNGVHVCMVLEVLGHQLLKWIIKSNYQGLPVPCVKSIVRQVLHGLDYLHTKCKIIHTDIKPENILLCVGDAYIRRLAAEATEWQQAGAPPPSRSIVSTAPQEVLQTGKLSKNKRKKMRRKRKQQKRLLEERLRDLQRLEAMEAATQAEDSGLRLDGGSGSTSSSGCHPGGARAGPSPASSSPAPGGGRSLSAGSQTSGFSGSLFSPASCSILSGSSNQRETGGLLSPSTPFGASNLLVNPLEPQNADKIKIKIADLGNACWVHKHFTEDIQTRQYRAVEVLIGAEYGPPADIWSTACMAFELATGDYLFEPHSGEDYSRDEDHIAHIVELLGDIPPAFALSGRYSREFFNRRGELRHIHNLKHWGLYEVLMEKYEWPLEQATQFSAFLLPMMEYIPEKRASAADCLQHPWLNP
Sequence of Calcium/calmodulin-dependent protein kinase type II subunit delta (Homo sapiens) (Q13557 whole entry): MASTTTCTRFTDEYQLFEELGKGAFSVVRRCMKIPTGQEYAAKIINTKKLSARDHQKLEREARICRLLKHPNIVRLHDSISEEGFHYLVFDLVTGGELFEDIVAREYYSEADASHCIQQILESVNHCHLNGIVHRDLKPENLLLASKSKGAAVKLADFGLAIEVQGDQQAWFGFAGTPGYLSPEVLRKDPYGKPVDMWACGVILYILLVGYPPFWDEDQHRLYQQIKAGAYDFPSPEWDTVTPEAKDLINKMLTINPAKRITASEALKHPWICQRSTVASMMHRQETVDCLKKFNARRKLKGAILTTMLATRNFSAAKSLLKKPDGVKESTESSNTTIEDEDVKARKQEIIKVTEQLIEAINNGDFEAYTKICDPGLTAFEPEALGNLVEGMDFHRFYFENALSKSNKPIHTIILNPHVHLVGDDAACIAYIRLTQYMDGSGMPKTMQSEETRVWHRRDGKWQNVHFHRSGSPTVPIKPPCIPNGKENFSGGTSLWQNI
Sequence of CDK1/Cyclin A (Homo sapiens) (P06493 whole entry, looked up): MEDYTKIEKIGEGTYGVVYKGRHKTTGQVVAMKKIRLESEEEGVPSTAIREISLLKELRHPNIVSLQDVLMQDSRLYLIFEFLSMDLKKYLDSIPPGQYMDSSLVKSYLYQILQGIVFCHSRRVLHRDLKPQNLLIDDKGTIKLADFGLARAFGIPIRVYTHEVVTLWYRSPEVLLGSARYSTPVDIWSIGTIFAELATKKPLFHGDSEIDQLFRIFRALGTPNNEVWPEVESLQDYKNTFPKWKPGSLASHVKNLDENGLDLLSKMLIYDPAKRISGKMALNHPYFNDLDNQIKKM
Sequence of CDK1/Cyclin A (Homo sapiens) (P20248 whole entry, looked up): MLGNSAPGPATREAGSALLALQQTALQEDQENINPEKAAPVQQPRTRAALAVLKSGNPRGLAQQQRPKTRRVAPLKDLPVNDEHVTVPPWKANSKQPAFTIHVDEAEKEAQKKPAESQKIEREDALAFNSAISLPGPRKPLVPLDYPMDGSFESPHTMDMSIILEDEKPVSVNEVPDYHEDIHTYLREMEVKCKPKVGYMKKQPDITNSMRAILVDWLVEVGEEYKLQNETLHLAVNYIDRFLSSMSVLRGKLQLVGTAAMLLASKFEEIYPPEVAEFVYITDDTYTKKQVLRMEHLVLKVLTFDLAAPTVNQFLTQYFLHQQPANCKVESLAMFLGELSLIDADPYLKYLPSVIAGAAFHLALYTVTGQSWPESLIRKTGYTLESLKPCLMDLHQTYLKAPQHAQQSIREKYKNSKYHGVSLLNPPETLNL
Sequence of Protein kinase C delta type (Homo sapiens) (Q05655 whole entry, looked up): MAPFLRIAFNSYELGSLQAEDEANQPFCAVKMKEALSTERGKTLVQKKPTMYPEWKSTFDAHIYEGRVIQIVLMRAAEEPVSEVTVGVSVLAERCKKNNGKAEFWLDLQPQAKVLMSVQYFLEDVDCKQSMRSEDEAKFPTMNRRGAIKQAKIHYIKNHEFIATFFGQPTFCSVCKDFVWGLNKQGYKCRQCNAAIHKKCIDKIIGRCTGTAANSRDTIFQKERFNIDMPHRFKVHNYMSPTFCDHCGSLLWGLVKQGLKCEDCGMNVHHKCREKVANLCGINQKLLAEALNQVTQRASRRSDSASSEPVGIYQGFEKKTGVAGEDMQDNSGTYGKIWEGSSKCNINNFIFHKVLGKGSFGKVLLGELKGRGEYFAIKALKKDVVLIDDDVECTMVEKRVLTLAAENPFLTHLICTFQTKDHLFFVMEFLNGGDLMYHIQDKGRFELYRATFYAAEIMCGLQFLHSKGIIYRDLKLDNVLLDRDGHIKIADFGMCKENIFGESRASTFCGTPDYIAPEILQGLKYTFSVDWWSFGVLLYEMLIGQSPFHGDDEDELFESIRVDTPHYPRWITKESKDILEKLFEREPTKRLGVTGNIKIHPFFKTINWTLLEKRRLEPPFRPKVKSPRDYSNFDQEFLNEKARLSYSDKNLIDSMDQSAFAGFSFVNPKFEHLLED

CN(C)CCOc1ccc(-c2nc(-c3ccncc3)c(-c3ccc4c(c3)CC/C4=N\O)[nH]2)cc1
% of control [1]: 89%

C=CC(=O)Nc1cccc(C(=O)Nc2ccc(Nc3cc(-c4[nH]c(SC)nc4C)ccn3)cc2)c1
% of control ([2]; at 1 µM): 97% | % of control ([2]; at 5 µM): 96%

Nc1cnc(N2CCc3cc(S(=O)(=O)Nc4c(F)cc(Cl)cc4F)cc(N4CCCC4=O)c32)nc1 [TP-020n]
% of inhibition [3]: 20.5%

Cn1cc(-n2cnc3c(NCc4nc5cc(Cl)c(Cl)cc5[nH]4)nc(N4CCOCC4)nc32)cn1
% of inhibition [4]: -8.99% | % of inhibition [5]: -246%

CC[C@@H]1[C@H](F)C(=O)N[C@@H]1COc1nccc2cc(C(N)=O)c(OC)cc12 [ZIMLOVISERTIB]
% of inhibition [6]: 24.9%

CNC(=O)Nc1ccc(-c2nc(N3CC4CCC(C3)O4)c3cnn(C4CCC5(CC4)OCCO5)c3n2)cc1
% of control [7]: 100%

COc1cc(Nc2nc(C)cc(-c3cnn4nc(OC)ccc34)n2)cc(C(F)(F)F)c1
% of control [8]: 100%

CN(C)C/C=C/C(=O)Nc1ccc(C(=O)N2CCCC(Nc3ncc(Cl)c(-c4c[nH]c5ccccc45)n3)C2)cc1 (stereo unspecified)
% of control [9]: 86%

N#Cc1cccc(-c2c[nH]c3ncnc(N4CCOCC4)c23)c1
% of inhibition [10]: 6%
